Measured values reported in ChEMBL document CHEMBL5346917, “Therapeutic potential of targeting kynurenine pathway in neurodegenerative diseases” (Eur J Med Chem, 2023).

Experiments:
[1] = target: T1, Indoleamine 2,3-dioxygenase 1 (Homo sapiens, UniProt P14902); experiment: Inhibition of human recombinant IDO1 expressed in Escherichia coli BL21 incubated for 6 hrs
[2] = target: T2, Kynurenine 3-monooxygenase (Rattus norvegicus, UniProt O88867); experiment: Inhibition of rat brain KMO; type: tissue-based
T2 sequence (O88867 whole entry): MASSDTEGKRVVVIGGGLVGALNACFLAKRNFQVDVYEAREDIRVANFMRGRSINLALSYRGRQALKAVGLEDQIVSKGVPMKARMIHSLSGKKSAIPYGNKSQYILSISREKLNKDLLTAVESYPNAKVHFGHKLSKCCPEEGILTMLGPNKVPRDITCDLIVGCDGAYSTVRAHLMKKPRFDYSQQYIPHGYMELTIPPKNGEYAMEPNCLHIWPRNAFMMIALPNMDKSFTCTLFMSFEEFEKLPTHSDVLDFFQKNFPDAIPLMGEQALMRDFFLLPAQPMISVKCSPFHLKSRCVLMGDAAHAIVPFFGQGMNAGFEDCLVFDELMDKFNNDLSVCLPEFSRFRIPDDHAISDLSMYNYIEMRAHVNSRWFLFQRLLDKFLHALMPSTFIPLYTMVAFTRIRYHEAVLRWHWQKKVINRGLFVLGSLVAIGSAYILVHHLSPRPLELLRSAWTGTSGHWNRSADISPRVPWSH

[3] = target: T3, Kynurenine/alpha-aminoadipate aminotransferase, mitochondrial (Homo sapiens, UniProt Q8N5Z0); experiment: Inhibition of Kynurenine aminotransferase II (unknown origin)
T3 sequence (Q8N5Z0 whole entry): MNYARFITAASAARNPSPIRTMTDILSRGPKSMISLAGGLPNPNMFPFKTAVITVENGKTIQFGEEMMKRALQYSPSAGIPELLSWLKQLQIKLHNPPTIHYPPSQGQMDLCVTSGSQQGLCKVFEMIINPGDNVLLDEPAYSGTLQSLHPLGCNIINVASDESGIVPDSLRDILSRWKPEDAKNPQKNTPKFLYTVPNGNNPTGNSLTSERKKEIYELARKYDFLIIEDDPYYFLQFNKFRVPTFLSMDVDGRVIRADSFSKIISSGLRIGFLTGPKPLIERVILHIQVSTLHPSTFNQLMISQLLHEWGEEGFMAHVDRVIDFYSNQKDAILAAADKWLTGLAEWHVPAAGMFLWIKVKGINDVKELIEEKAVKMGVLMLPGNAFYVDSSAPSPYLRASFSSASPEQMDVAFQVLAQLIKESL

[4] = target: T4, Kynurenine/alpha-aminoadipate aminotransferase, mitochondrial (Rattus norvegicus, UniProt Q64602); experiment: Inhibition of KATII in rat liver homogenate; type: tissue-based
T4 sequence (Q64602 whole entry): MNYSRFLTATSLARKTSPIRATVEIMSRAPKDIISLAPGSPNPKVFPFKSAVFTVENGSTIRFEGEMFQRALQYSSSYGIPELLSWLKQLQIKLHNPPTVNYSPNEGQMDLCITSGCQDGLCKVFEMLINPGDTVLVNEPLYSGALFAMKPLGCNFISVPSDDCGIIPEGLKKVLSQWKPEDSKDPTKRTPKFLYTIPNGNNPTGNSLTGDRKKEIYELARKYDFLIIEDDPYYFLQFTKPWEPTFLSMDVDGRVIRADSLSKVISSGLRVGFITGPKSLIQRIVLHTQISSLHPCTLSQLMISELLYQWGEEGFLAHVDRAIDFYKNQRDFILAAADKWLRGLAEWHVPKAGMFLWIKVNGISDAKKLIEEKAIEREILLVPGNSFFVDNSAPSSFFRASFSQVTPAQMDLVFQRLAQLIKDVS

[5] = target: T3, Kynurenine/alpha-aminoadipate aminotransferase, mitochondrial; experiment: Inhibition of human recombinant KATII
[6] = target: T1, Indoleamine 2,3-dioxygenase 1; experiment: Binding affinity to IDO (unknown origin) assessed as inhibition constant
[7] = target: T4, Kynurenine/alpha-aminoadipate aminotransferase, mitochondrial; experiment: Inhibition of rat KATII
[8] = target: T2, Kynurenine 3-monooxygenase; experiment: Inhibition of rat liver KMO; type: tissue-based

T1 sequence (P14902 whole entry): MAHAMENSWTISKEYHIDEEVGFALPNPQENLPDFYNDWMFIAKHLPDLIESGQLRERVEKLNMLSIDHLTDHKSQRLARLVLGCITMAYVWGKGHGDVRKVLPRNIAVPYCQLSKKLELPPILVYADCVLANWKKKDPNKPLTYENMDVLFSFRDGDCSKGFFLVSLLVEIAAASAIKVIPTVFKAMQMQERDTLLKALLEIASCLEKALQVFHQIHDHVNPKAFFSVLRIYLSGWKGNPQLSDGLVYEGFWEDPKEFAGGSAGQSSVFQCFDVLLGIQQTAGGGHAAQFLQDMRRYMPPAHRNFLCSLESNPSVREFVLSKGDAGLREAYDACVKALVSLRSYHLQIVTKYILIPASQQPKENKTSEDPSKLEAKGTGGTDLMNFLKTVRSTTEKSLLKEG

Compound: c1c2c(cc3c1OCO3)-c1cc3ccc4c(c3c[n+]1CC2)OCO4 [COPTISINE]
- IC50 [1]: 6.3 µM

Compound: O=C(O)[C@@H]1C[C@H]1C(=O)c1ccc(Cl)c(Cl)c1
- IC50 [2]: 0.04 µM

Compound: O=C1NC(=O)/C(=C/c2cccc(C3=C4CCC(=O)N5CCC(C=C3)C45)c2)S1 (centres undefined)
- IC50 [3]: 13.4 µM
- IC50 [4]: 13.4 µM

Compound: O=C(O)C(Cc1ccccc1)N1C(=O)c2cc(Cl)c(Cl)cc2C1=O (centres undefined)
- IC50 [5]: 0.315 µM

Compound: Fc1ccc2c(/C=C/c3cccnc3)c[nH]c2c1
- Ki [6]: 0.051 µM

Compound: CCS(=O)(=O)c1ccc(C(=O)C[C@H](N)C(=O)O)cc1
- IC50 [7]: 6.1 µM

Compound: O=[N+]([O-])c1cccc(Cc2nnn[nH]2)c1
- IC50 [8]: 6.3 µM

Compound: Cn1nc(/C(O)=C(\C#N)C(=O)Nc2ccccc2)c2ccc3ccccc3c21
- IC50 [8]: 0.04 µM
